Tests used:
Type in all cases: functional, cell-based
[1] = molecular target: T1, 5-hydroxytryptamine receptor 6 (Homo sapiens, UniProt P50406); test: Antagonist activity at human recombinant 5HT6 receptor expressed in HeLa cells assessed as inhibition of 5HT-induced intracellular calcium level at 10 uM incubated for 15 mins prior to 5HT-induction measured after 1 hr by fluo-4-AM-based fluorimetry
[2] = molecular target: T1, 5-hydroxytryptamine receptor 6; test: Antagonist activity at human recombinant 5HT6 receptor expressed in HeLa cells assessed as inhibition of 5HT-induced intracellular calcium level incubated for 15 mins prior to 5HT-induction measured after 1 hr by fluo-4-AM-based fluorimetry
[3] = molecular target: T1, 5-hydroxytryptamine receptor 6; test: Antagonist activity at human 5HT6 receptor expressed in HEK293 cells assessed as inhibition of 5HT-induced intracellular calcium level at 10 uM incubated for 15 mins prior to 5HT-induction measured after 1 hr by fluo-4-AM-based fluorimetry
[4] = molecular target: 5-hydroxytryptamine receptor 4 (Homo sapiens) (UniProt Q13639); test: Antagonist activity at human 5HT4 receptor expressed in HEK293 cells assessed as inhibition of 5HT-induced intracellular calcium level at 10 uM incubated for 15 mins prior to 5HT-induction measured after 1 hr by fluo-4-AM-based fluorimetry
[5] = molecular target: 5-hydroxytryptamine receptor 7 (Homo sapiens) (UniProt P34969); test: Antagonist activity at human 5HT7 receptor expressed in HEK293 cells assessed as inhibition of 5HT-induced intracellular calcium level at 10 uM incubated for 15 mins prior to 5HT-induction measured after 1 hr by fluo-4-AM-based fluorimetry
Sequence of 5-hydroxytryptamine receptor 7 (Homo sapiens) (P34969 whole entry): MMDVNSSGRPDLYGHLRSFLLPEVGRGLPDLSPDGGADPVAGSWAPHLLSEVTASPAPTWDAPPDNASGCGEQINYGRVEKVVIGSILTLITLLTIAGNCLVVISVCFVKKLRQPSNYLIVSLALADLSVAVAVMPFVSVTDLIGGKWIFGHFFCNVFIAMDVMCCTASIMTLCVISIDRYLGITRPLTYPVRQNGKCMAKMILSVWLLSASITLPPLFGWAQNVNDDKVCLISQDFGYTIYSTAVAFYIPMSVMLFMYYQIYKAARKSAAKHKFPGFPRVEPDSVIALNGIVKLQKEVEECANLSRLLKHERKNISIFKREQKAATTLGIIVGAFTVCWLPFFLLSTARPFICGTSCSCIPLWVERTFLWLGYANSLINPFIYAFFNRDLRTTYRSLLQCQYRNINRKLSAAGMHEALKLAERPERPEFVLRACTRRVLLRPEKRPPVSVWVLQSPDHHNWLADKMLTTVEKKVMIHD

Sequence of 5-hydroxytryptamine receptor 4 (Homo sapiens) (Q13639 whole entry): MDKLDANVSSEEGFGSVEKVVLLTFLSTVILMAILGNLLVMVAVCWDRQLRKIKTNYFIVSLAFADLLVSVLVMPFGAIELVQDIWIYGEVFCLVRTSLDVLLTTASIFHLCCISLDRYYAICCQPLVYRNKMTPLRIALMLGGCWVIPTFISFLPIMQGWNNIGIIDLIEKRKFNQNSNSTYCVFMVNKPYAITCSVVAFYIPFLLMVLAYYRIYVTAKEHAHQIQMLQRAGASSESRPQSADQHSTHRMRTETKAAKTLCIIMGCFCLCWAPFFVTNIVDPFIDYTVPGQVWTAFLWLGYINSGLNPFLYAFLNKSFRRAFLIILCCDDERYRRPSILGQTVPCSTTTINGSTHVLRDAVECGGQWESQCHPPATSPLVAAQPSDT
T1 sequence (P50406 whole entry): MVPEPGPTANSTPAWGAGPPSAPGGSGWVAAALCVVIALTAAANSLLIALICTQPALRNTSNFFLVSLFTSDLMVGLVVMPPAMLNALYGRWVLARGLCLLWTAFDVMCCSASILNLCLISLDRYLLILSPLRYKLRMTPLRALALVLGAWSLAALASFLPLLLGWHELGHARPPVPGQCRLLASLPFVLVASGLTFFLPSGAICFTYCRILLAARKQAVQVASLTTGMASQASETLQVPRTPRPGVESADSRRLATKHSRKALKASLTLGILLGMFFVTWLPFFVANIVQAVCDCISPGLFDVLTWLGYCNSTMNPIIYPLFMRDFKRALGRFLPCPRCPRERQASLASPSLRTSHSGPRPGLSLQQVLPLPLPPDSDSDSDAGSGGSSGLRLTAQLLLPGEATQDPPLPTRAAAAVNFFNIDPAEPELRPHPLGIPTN

Row | Structure (SMILES) | inhibition [1] [%] | IC50 [2] [nM] | inhibition [3] [%] | inhibition [4] [%] | inhibition [5] [%]
1 | CN(C)/C=N/c1nc2cc(NS(=O)(=O)c3cccc4ccccc34)ccc2s1 | 25.5 | – | – | – | –
2 | CN(C)/C=N/c1nsc2ccc(NS(=O)(=O)c3cccc4cccnc34)cc12 | 12.1 | – | – | – | –
3 | CN(C)/C=N/c1nsc2ccc(NS(=O)(=O)c3ccc4ccccc4c3)cc12 | 99.1 | 440 | 98.8 | 17.4 | 28.9
4 | CN(C)/C=N/c1nsc2ccc(NS(=O)(=O)c3c(F)cccc3F)cc12 | 10.8 | – | – | – | –
5 | CN(C)/C=N/c1nsc2ccc(NS(=O)(=O)c3cccc4ccccc34)cc12 | 43.5 | – | – | – | –
6 | CN(C)/C=N/c1nc2cc(NS(=O)(=O)c3ccc4ccccc4c3)ccc2s1 | 66.3 | – | – | – | –
7 | CN(C)/C=N/c1nsc2ccc(NS(=O)(=O)c3ccccc3)cc12 | 42.6 | – | – | – | –

The next lines start with the values.

Row | inhibition [1] [%] | IC50 [2] [nM] | inhibition [3] [%] | inhibition [4] [%] | inhibition [5] [%] | Structure (SMILES)
8 | 9.8 | – | – | – | – | CN(C)/C=N/c1nsc2ccc(NS(=O)(=O)c3ccc([N+](=O)[O-])cc3)cc12
9 | 51.1 | 3600 | 53.9 | 11.6 | 40.2 | CN(C)/C=N/c1nsc2ccc(NS(=O)(=O)c3ccc(Cl)cc3)cc12
10 | 84.3 | 360 | 86.5 | 21.9 | 68.8 | Cc1ccc(S(=O)(=O)Nc2ccc3snc(/N=C/N(C)C)c3c2)cc1
11 | 20.2 | – | – | – | – | CN(C)/C=N/c1nsc2ccc(NS(=O)(=O)c3ccc(F)cc3)cc12
12 | 27 | – | – | – | – | CC(C)c1ccc(S(=O)(=O)Nc2ccc3snc(/N=C/N(C)C)c3c2)cc1
